Source: US20100216779A1 (GLAXOSMITHKLINE LLC, priority 2007, published 2010)

Experiments:
Assay type in all cases: cell-based
COLO205 (colon) = test: Inhibition of cell proliferation, CellTiter-Glo, COLO205; conditions: Homo sapiens, COLO 205, 72 h
In short: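 Exponentially growing COLO205 cells in medium with 10% FBS were plated below 2000 cells/well at 37 °C, 5% CO2. Untreated wells served as controls.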

[1] = test system: NCI-H929 (multiple myeloma); test: Inhibition of cell proliferation, CellTiter-Glo, NCI-H929; conditions: Homo sapiens, 72 h
Procedure: C. Inhibition of Cell Proliferation
Cell proliferation was measured by either CellTiter-Glo (measures cellular ATP level as a surrogate for total cell number) or by InCell analyzer (counts number of nuclei as a measure of cell number). For CellTiter-Glo assay, exponentially growing cell lines of different tumor origins, cultured in appropriate media containing 10% fetal bovine serum at 37° C. in a 5% CO2 incubator, were plated at low density (less than 2000 cells/well) in 96-well plates. Twenty four hours post-plating, cells were treated with different concentrations of test compounds ranging from 30 uM to 1.5 nM. Several wells were left untreated as a control. Seventy two hours post-treatment, cell numbers were determined using 50-100 ul per well of CellTiter-Glo (Promega #G7573). Plates were incubated at 37° C. for 30 minutes and the chemiluminescent signal was read on the Victor V or Envison 2100 reader. […]

[2] = molecular target: T1, human IGF-1R (NIH-3T3 cells over expressing human IGF-1R) (Homo sapiens, UniProt P08069); test: IGF-1R cellular autophosphorylation (DELFIA); conditions: IGF-1 stimulated
T1 construct: expressed in transfected cells; host or cells: NIH-3T3 (mouse fibroblasts)
T1 sequence (P08069 31-1367): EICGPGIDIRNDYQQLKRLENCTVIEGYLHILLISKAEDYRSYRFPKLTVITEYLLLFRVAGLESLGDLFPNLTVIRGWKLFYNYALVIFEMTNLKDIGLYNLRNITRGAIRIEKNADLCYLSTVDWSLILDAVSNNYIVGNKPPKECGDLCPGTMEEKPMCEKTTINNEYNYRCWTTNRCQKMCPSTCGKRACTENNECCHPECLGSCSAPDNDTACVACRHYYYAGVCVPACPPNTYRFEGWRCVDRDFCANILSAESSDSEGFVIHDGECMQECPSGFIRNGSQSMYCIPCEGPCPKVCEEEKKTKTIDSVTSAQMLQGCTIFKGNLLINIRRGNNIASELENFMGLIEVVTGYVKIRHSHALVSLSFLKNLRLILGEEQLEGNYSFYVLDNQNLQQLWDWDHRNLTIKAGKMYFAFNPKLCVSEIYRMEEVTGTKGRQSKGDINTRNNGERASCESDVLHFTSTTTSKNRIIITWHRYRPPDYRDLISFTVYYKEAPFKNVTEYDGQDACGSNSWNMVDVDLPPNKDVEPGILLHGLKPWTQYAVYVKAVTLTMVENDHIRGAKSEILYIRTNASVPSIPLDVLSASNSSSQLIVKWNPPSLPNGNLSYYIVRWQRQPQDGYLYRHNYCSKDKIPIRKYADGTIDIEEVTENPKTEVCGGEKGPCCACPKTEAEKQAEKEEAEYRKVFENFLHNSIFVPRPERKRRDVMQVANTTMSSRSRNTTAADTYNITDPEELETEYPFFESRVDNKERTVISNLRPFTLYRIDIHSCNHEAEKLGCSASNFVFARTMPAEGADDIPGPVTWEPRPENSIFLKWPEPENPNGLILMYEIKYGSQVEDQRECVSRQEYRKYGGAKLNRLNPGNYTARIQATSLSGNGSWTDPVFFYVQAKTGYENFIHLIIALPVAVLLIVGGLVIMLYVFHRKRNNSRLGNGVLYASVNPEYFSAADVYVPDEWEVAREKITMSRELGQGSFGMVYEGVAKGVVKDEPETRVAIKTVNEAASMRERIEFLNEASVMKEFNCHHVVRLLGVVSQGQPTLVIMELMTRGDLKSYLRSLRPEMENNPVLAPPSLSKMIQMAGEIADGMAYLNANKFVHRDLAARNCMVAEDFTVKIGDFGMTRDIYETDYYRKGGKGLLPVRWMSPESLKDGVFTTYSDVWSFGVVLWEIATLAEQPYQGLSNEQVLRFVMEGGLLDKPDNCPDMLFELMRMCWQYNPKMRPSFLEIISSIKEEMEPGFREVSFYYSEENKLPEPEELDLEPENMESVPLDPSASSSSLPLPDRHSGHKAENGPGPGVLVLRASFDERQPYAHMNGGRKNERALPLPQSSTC
In short: (§1)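 Readout: DELFIA on lysates, with anti-IGF-1R or anti-IR capture and europium anti-pTyr detection, expressed relative to 100% ligand-stimulated signal. Human IGF-1R- or IR-overexpressing NIH-3T3 cells got compound (1.5 nM–30 uM) for 2 h before 15 min IGF-1 (30 ng/mL) or insulin (3 ug/mL).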

[3] = molecular target: T2, IR (NIH-3T3 cells over expressing human IGF-1R or IR) (Homo sapiens, UniProt P06213); test: IR cellular autophosphorylation (DELFIA); conditions: NIH-3T3 cells over expressing IR, insulin stimulated
T2 construct: expressed in transfected cells; host or cells: NIH-3T3 (mouse fibroblasts)
T2 sequence (P06213 28-1382): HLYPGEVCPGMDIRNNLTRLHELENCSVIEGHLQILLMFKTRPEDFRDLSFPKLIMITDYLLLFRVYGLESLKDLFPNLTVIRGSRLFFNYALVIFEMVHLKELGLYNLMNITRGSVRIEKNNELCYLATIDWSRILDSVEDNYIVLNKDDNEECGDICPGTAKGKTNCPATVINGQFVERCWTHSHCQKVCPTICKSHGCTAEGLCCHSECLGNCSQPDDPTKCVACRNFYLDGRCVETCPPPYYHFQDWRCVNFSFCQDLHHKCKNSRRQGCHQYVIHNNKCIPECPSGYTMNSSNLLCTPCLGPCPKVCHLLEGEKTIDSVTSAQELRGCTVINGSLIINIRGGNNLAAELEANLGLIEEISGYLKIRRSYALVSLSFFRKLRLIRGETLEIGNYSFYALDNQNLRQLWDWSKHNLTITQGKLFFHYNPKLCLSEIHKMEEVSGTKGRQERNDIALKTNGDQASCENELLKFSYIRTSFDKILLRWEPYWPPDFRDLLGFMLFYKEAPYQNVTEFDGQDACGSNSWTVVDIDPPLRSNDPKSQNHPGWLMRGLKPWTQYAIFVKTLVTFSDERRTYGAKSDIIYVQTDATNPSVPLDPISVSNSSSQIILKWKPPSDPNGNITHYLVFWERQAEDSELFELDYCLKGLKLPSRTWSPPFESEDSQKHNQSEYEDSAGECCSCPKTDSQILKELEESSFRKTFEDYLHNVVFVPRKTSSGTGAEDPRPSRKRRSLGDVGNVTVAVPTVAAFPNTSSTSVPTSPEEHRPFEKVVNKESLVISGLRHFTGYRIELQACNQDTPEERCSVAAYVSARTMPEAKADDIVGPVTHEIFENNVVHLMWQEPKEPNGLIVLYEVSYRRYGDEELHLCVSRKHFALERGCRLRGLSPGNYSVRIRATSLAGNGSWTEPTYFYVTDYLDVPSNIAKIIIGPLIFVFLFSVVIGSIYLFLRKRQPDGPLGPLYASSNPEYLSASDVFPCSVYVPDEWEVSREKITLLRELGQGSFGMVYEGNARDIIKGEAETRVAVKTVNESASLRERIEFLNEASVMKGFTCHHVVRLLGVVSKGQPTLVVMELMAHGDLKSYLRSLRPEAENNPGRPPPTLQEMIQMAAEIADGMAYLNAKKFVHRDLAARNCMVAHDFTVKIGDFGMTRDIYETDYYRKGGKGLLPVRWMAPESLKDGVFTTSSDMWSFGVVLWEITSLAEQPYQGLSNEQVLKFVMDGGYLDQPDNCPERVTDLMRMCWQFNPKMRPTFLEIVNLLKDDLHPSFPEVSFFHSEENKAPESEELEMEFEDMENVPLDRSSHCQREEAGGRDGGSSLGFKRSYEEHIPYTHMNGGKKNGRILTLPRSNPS
In short: as §1

Row | Compound | IC50 (COLO205 (colon)) | IC50 [1] | IC50 [2] | IC50 [3]
1 | COc1cc(N2CCC(CCS(C)(=O)=O)CC2)ccc1Nc1nccc(-c2c(-c3ccc(OC)c(C(=O)Nc4c(F)cccc4F)c3)nc3ccccn23)n1 [Example 201, N-(2,6-difluorophenyl)-2-(methyloxy)-5-(3-{2-[(2-(methyloxy)-4-{4-[2-(methylsulfonyl)ethyl]-1-piperidinyl}phenyl)amino]-4-pyrimidinyl}imidazo[1,2-a]pyridin-2-yl)benzamide] | 250 to 1000 nM | < 250 nM | < 100 nM | < 100 nM
2 | CCOc1cc(N2CCN(CCS(C)(=O)=O)CC2)c(C)cc1Nc1nccc(-c2c(-c3cccc(C(=O)Nc4c(F)cccc4F)c3)nc3ccccn23)n1 [Example 246, N-(2,6-difluorophenyl)-3-(3-{2-[(2-(ethyloxy)-5-methyl-4-{4-[2-(methylsulfonyl)ethyl]-1-piperazinyl}phenyl)amino]-4-pyrimidinyl}imidazo[1,2-a]pyridin-2-yl)benzamide] | < 250 nM | < 250 nM | < 100 nM | < 100 nM
3 | COc1cc(C2CCN(CCS(C)(=O)=O)CC2)c(C)cc1Nc1nccc(-c2c(-c3ccc(OC)c(C(=O)Nc4c(F)cccc4F)c3)nc3ccccn23)n1 [Example 163, N-(2,6-difluorophenyl)-5-(3-{2-[(5-methyl-2-(methyloxy)-4-{1-[2-(methylsulfonyl)ethyl]-4-piperidinyl}phenyl)amino]-4-pyrimidinyl}imidazo[1,2-a]pyridin-2-yl)-2-(methyloxy)benzamide] | 250 to 1000 nM | < 250 nM | < 100 nM | < 100 nM
4 | CCOc1ccc(-c2nc3ccccn3c2-c2ccnc(Nc3ccc(N4CCN(C(C)C)CC4)cc3OC)n2)cc1C(=O)Nc1c(F)cccc1F [Example 177, N-(2,6-difluorophenyl)-2-(ethyloxy)-5-[3-(2-{[4-[4-(1-methylethyl)-1-piperazinyl]-2-(methyloxy)phenyl]amino}-4-pyrimidinyl)imidazo[1,2-a]pyridin-2-yl]benzamide] | 250 to 1000 nM | < 250 nM | < 100 nM | < 100 nM
5 | CCCN1CCN(c2ccc(Nc3nccc(-c4c(-c5ccc(OCC)c(C(=O)Nc6c(F)cccc6F)c5)nc5ccccn45)n3)c(OCC)c2)CC1 [Example 152, N-(2,6-difluorophenyl)-2-(ethyloxy)-5-[3-(2-{[2-(ethyloxy)-4-(4-propyl-1-piperazinyl)phenyl]amino}-4-pyrimidinyl)imidazo[1,2-a]pyridin-2-yl]benzamide] | 250 to 1000 nM | < 250 nM | < 100 nM | < 100 nM
6 | CCCN1CCC(c2ccc(Nc3nccc(-c4c(-c5cccc(C(=O)Nc6c(F)cccc6F)c5)nc5ccccn45)n3)c(OC)c2)CC1 [Example 138, N-(2,6-difluorophenyl)-3-[3-(2-{[2-(methyloxy)-4-(1-propyl-4-piperidinyl)phenyl]amino}-4-pyrimidinyl)imidazo[1,2-a]pyridin-2-yl]benzamide] | 250 to 1000 nM | < 250 nM | < 100 nM | < 100 nM
7 | COc1cc(N2CCC(N3CCN(S(C)(=O)=O)CC3)CC2)ccc1Nc1nccc(-c2c(-c3cccc(C(=O)Nc4c(F)cccc4F)c3)nc3cc(F)ccn23)n1 [Example 196, N-(2,6-difluorophenyl)-3-(7-fluoro-3-{2-[(2-(methyloxy)-4-{4-[4-(methylsulfonyl)-1-piperazinyl]-1-piperidinyl}phenyl)amino]-4-pyrimidinyl}imidazo[1,2-a]pyridin-2-yl)benzamide] | 250 to 1000 nM | < 250 nM | < 100 nM | < 100 nM
8 | COc1cc(N2CCC(N3CCCN(C)CC3)CC2)ccc1Nc1nccc(-c2c(-c3cccc(C(=O)Nc4c(F)cccc4F)c3)nc3ccccn23)n1 [Example 48, N-(2,6-difluorophenyl)-3-[3-(2-{[4-[4-(4-methylhexahydro-1H-1,4-diazepin-1-yl)-1-piperidinyl}-2-(methyloxy)phenyl]amino}-4-pyrimidinyl)imidazo[1,2-a]pyridin-2-yl]benzamide] | 250 to 1000 nM | 250 to 1000 nM | < 100 nM | 100 to 500 nM
9 | CCCN1CCC(c2cc(OC)c(Nc3nccc(-c4c(-c5cccc(C(=O)Nc6c(F)cccc6F)c5)nc5ccccn45)n3)cc2C)CC1 [Example 159, N-(2,6-difluorophenyl)-3-[3-(2-{[5-methyl-2-(methyloxy)-4-(1-propyl-4-piperidinyl)phenyl]amino}-4-pyrimidinyl)imidazo[1,2-a]pyridin-2-yl]benzamide] | 250 to 1000 nM | < 250 nM | < 100 nM | < 100 nM
10 | CCCN1CCC(c2cc(OC)c(Nc3nccc(-c4c(-c5ccc(OC)c(C(=O)Nc6c(F)cccc6F)c5)nc5ccccn45)n3)cc2C)CC1 [Example 157, N-(2,6-difluorophenyl)-5-[3-(2-{[5-methyl-2-(methyloxy)-4-(1-propyl-4-piperidinyl)phenyl]-amino}-4-pyrimidinyl)imidazo[1,2-a]pyridin-2-yl]-2-(methyloxy)benzamide] | < 250 nM | < 250 nM | < 100 nM | < 100 nM
11 | CCOc1cc(N2CCC(N3CCN(CC(F)F)CC3)CC2)ccc1Nc1nccc(-c2c(-c3cccc(C(=O)Nc4c(F)cccc4F)c3)nc3ccccn23)n1 [Example 117, 3-[3-(2-{[4-{4-[4-(2,2-difluoroethyl)-1-piperazinyl]-1-piperidinyl}-2-(ethyloxy)phenyl]-amino}-4-pyrimidinyl)imidazo[1,2-a]pyridin-2-yl]-N-(2,6-difluorophenyl)benzamide] | > 1000 nM | 250 to 1000 nM | < 100 nM | < 100 nM
12 | CCOc1ccc(-c2nc3ccccn3c2-c2ccnc(Nc3cc(C)c(N4CCCN(CCS(C)(=O)=O)CC4)cc3OC)n2)cc1C(=O)Nc1c(F)cccc1F [Example 203, N-(2,6-difluorophenyl)-2-(ethyloxy)-5-(3-{2-[(5-methyl-2-(methyloxy)-4-{4-[2-(methylsulfonyl)ethyl)hexahydro-1H-1,4-diazepin-1-yl]phenyl)amino]-4-pyrimidinyl}imidazo[1,2-a]pyridin-2-yl)benzamide] | < 250 nM | < 250 nM | < 100 nM | < 100 nM
13 | COc1cc(C2CCN(CC(C)C)CC2)ccc1Nc1nccc(-c2c(-c3ccc(OC)c(C(=O)Nc4c(F)cccc4F)c3)nc3ccccn23)n1 [Example 160, N-(2,6-difluorophenyl)-2-(methyloxy)-5-{3-[2-({2-(methyloxy)-4-[1-(2-methylpropyl)-4-piperidinyl]phenyl}amino)-4-pyrimidinyl]imidazo[1,2-a]pyridin-2-yl}benzamide] | 250 to 1000 nM | < 250 nM | < 100 nM | < 100 nM
14 | COc1cc(N2CCC(N3CCN(CCS(C)(=O)=O)CC3)CC2)ccc1Nc1nccc(-c2c(-c3cccc(C(=O)Nc4c(F)cccc4F)c3)nc3c(C)cccn23)n1 [Example 67, N-(2,6-difluorophenyl)-3-[8-methyl-3-(2-{[2-(methyloxy)-4-(4-{4-[2-(methylsulfonyl)ethyl)-1-piperazinyl}-1-piperidinyl)phenyl]amino]-4-pyrimidinyl)imidazo[1,2-a]pyridin-2-yl]benzamide] | 250 to 1000 nM | 250 to 1000 nM | < 100 nM | 100 to 500 nM
15 | COc1cc(C2CCN(CCS(C)(=O)=O)CC2)ccc1Nc1nccc(-c2c(-c3cccc(C(=O)Nc4c(F)cccc4F)c3)nc3ccccn23)n1 [Example 180, N-(2,6-difluorophenyl)-3-(3-{2-[(2-(methyloxy)-4-{1-[2-(methylsulfonyl)ethyl]-4-piperidinyl}phenyl)amino]-4-pyrimidinyl}imidazo[1,2-a]pyridin-2-yl)benzamide] | 250 to 1000 nM | < 250 nM | < 100 nM | < 100 nM
16 | CN(C)CCOc1cccc(Nc2nccc(-c3c(-c4cccc(C(=O)Nc5c(F)cc(F)cc5F)c4)nc4ccccn34)n2)c1 [Example 12, 3-(3-{2-[(3-{[2-(dimethylamino)ethyl]oxy}phenyl)amino]-4-pyrimidinyl}imidazo[1,2-a]pyridin-2-yl)-N-(2,4,6-trifluorophenyl)benzamide] | 250 to 1000 nM | < 250 nM | 100 to 500 nM | –
17 | COc1cc(N2CCC(CCS(C)(=O)=O)CC2)c(C)cc1Nc1nccc(-c2c(-c3cccc(C(=O)Nc4c(F)cccc4F)c3)nc3ccccn23)n1 [Example 231, N-(2,6-difluorophenyl)-3-(3-{2-[(5-methyl-2-(methyloxy)-4-{4-[2-(methylsulfonyl)ethyl]-1-piperidinyl}phenyl)amino]-4-pyrimidinyl}imidazo[1,2-a]pyridin-2-yl)benzamide] | – | < 250 nM | < 100 nM | < 100 nM
